Data: article PMC5554537 (Frontiers in Pharmacology, 2017)
Where “and” joins values, the source holds several entries; their conditions need not be identical. Equal values may be shown once.

How the values were obtained:
[1] = Stability in mouse liver homogenates (QC samples); assay type: physicochemical
Excerpt: using octa-deuterated internal standards of SN30000, M13 and M14 synthesised as previously reported (Wang et al., 2012). Intra- and inter-day precision (expressed as relative standard deviation (RSD) and accuracy (expressed as percentage of the nominal value) were deter mined by analy sis of replicates (n=6) of low and high quality control (QC) samples on three different days. The lower limit of quantitation (LLOQ) was defined as the lowest concentration providing RSD and accuracy < 20%. Recovery from plasma and liver ho mogenates was tested at the three QC levels. The recoveries were evaluated by comparing extracted samples with blank extracted solutions spiked with analytes of the same amount.
Matrix effects, defined as the change in response due to the presence of other substances in the samples, were evaluated by comparing the analytes diluted into the blank plasma or liver extracted solution with that of the same stock solutions diluted in water. Three different concentration levels (low, medium and high QC) were evaluated by analysing three samples at each level. Accuracy , precision, recovery and matrix effects were all acceptable over the concentration ranges evaluated for plas ma (Supplementary Table 1) and for liver homogenates (Supplementary Table 2).
Stability of the analytes in mouse plasma (Supplementary Table 3) or liver homogenate (Supplementary Table 4) was confirmed during holding of QC samples on ice for up to 2 h under nor mal laboratory lighting, although there was a trend towards loss of SN30000 in plasma samples held in clear microcentrifuge tubes which may reflect the known photosensitivity of the compound (Gu et al., 2014). This loss was reduced by use of red microcentrifuge tubes, and eliminated by black tubes. Stability in both matrices was also confir med for one month storage at -80°C and for three freeze-thaw cycles, while MeOH-deproteinised samples w ere stable for 12 h at 4°C in the autosampler (Supplementary Tables

in vivo = conditions: NIH-III nude, mouse
Procedure: SN30000, M14 and M18 dosing solutions were prepared fresh in normal saline, filtered through 0.45 μm Acrodisc filters (Pall Life Sciences, Port Washington, NY, United States), protected from light in amber vials, and used within 3 h. Doses are expressed as mg of free base equivalent for SN30000 and M14, and free acid in the case of M18. […] Blood samples were collected from mice at various times by cardiac puncture, seconds after cervical dislocation, into ice-cold tubes containing K2EDTA. These were placed on ice immediately after collection and centrifuged (3,000 g, 3 min) within 10 min to harvest plasma. Plasma and tissues were rapidly frozen in liquid nitrogen before storage at -80°C for subsequent bioanalysis.
M18 was quantified by absorbance detection with reference to an external standard calibration curve.
Concentration-time data were analyzed by non-compartmental analysis using Phoenix WinNonlin (ver 6.4, Build 6.4.0768 Pharsight, United States); all AUC values were extrapolated to infinity using the linear trapezoidal rule. […] Model fits were further assessed by visual inspection of the residuals and predicted PK.

[2] = Plasma protein binding by equilibrium dialysis; assay type: in vitro ADME; conditions: NIH-III mouse plasma, 37°C, 6 h
Procedure: TABLE 11: Protein binding of SN30000, M14 and M18 at the indicated concentrations in NIH-III mouse plasma, measured by equilibrium dialysisa.
(µM) Percent Protein Bound (Mean ± SD)b […]
a Protein binding was evaluated by equilibrium dialysis using a high throughput plate with 12-14KDa dialysis membrane (HTDialysis, Gales Ferry, CT) as described by Banker et al., 2003, with modification. Briefly, 100 µL samples of plasma containing SN30000 or metabolites (M14 and M18) were dialysed against 100 µL PBS (pH 7.4) in an incubator (Innova-42, New Brunswick Scientific, US ) at 37°C with shaking at 80 rpm for 6 h. To achieve matrix match, 10 µL of blank plasma was added to 90 µL of the PBS sample and 90 µL of PBS was added to 10 µL of the plasma sample. Proteins were precipitated with 3 vol of ice-cold MeCN, the centrifuged supernatants were mixed with 2 vol 45 mM ammonium formate buffer pH 4.5, and 50 µL samples were analysed by HPLC with absorbance […]
bValues are mean and SD for triplicate samples.

[3] = biological target: T1, mouse brain acetylcholinesterase (Mus musculus, UniProt P21836); assay: biochemical; conditions: for IC50: mouse brain homogenate, 37°C
T1 construct: from tissue; host or cells: mouse brain homogenate
T1 sequence (P21836 32-614): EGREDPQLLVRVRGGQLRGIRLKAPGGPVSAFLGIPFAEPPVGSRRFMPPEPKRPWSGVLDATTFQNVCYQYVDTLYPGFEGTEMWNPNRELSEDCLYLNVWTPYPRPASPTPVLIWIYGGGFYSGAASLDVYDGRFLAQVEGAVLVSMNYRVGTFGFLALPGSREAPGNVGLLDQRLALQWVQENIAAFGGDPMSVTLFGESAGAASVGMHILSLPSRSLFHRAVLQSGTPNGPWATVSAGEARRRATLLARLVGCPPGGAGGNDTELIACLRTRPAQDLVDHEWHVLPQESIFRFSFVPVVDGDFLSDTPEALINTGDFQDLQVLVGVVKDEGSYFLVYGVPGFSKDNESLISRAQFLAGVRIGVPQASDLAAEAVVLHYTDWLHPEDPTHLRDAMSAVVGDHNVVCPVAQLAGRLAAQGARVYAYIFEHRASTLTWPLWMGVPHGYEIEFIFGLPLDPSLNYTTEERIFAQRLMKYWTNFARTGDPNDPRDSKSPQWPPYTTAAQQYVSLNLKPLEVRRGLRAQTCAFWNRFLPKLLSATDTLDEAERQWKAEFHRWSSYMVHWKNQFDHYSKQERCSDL
Procedure: TABLE 10: Inhibition of mouse brain acetylcholinesterase activitya by SN30000 and related compounds […]
aThe acetylcholinesterase inhibition assay is based on Obregon et al., 2005. Mouse brain homogenate was prepared in potassium phosphate buffer (100 mM, pH 7.4), which was pre-incubated with dithiobisnitrobenzoate (final concentration 1 mM) at 37°C for 10 min. After adding acetylthiocholine (final concentration 0.6 mM), the formation of 5-thio-2-nitrobenzoate was measured by monitoring absorbance (Spectramax- M2 spectrophotometer) at 412 nm every 30 s for 10 min. Negative controls (DMSO or saline) and positive control […]
IC50 values are based on 3-4 deter minations per compound.

[4] = liver homogenate deproteinised in 3 vol MeOH, 12 h autosampler at 4°C, nominal SN30000 0.5, M14 0.25, M13 0.1 µM
[5] = liver homogenate deproteinised in 3 vol MeOH, 12 h autosampler at 4°C, nominal SN30000 5, M14 2.5, M13 1 µM
[6] = liver homogenate deproteinised in 3 vol MeOH, 12 h autosampler at 4°C, nominal SN30000 50, M14 25, M13 10 µM
[7] = liver homogenate, 1 month at -80°C, nominal SN30000 0.5, M14 0.25, M13 0.1 µM
[8] = liver homogenate, 1 month at -80°C, nominal SN30000 5, M14 2.5, M13 1 µM
[9] = liver homogenate, 1 month at -80°C, nominal SN30000 50, M14 25, M13 10 µM
[10] = liver homogenate, 1h on ice, clear tubes, nominal SN30000 0.5, M14 0.25, M13 0.1 µM
[11] = liver homogenate, 1h on ice, clear tubes, nominal SN30000 5, M14 2.5, M13 1 µM
[12] = liver homogenate, 1h on ice, clear tubes, nominal SN30000 50, M14 25, M13 10 µM
[13] = liver homogenate, 2h on ice, nominal SN30000 0.5, M14 0.25, M13 0.1 µM
[14] = liver homogenate, 2h on ice, nominal SN30000 5, M14 2.5, M13 1 µM
[15] = liver homogenate, 2h on ice, nominal SN30000 50, M14 25, M13 10 µM
[16] = liver homogenate, three freeze-thaw cycles, nominal SN30000 0.5, M14 0.25, M13 0.1 µM
[17] = liver homogenate, three freeze-thaw cycles, nominal SN30000 5, M14 2.5, M13 1 µM
[18] = liver homogenate, three freeze-thaw cycles, nominal SN30000 50, M14 25, M13 10 µM

## c1c2c(cc3nc(CCCN4CCOCC4)nnc13)CCC2 [M13]
[1]; [4]
  Bias: 7.07%
  Measured conc: 0.11 µM
[1]; [5]
  Bias: 10.75%
  Measured conc: 1.11 µM
[1]; [6]
  Bias: 6.40%
  Measured conc: 10.64 µM
[1]; [7]
  Measured conc: 0.11 µM
[1]; [8]
  Bias: 4.04%
  Measured conc: 1.03 µM
[1]; [9]
  Bias: 5.05%
  Measured conc: 9.12 µM
[1]; [10]
  Bias: 11.64%
  Measured conc: 0.11 µM
[1]; [11]
  Bias: 10.33%
  Measured conc: 1.10 µM
[1]; [12]
  Bias: 7.77%
  Measured conc: 10.78 µM
[1]; [13]
  Bias: 2.48%
  Measured conc: 0.10 µM
[1]; [14]
  Bias: 3.25%
  Measured conc: 1.03 µM
[1]; [15]
  Bias: 1.11%
  Measured conc: 10.11 µM
[1]; [16]
  Bias: -7.15%
  Measured conc: 0.093 µM
[1]; [17]
  Bias: -4.26%
  Measured conc: 0.96 µM
[1]; [18]
  Bias: 5.64%
  Measured conc: 10.56 µM
In vivo; plasma, iv, 1.86 mg/kg
  AUC: 0.0047 µM·h
  half-life: 27.7 min
In vivo; plasma, iv, 18.6 mg/kg
  AUC: 0.146 µM·h
  half-life: 47.1 min
In vivo; plasma, iv, 78.3 mg/kg
  AUC: 3.34 µM·h
  half-life: 38.9 min

## [O-][n+]1nc(CCCN2CCOCC2)nc2cc3c(cc21)CCC3 [M14]
[1]; [4]
  Bias: 3.86%
  Measured conc: 0.26 µM
[1]; [5]
  Bias: 5.73%
  Measured conc: 2.64 µM
[1]; [6]
  Bias: 5.22%
  Measured conc: 26.30 µM
[1]; [7]
  Bias: 1.76%
  Measured conc: 0.25 µM
[1]; [8]
  Bias: 4.04%
  Measured conc: 2.35 µM
[1]; [9]
  Bias: 5.13%
  Measured conc: 23.54 µM
[1]; [10]
  Bias: 5.21%
  Measured conc: 0.26 µM
[1]; [11]
  Bias: 1.78%
  Measured conc: 2.54 µM
[1]; [12]
  Bias: 3.05%
  Measured conc: 25.76 µM
[1]; [13]
  Bias: 8.20%
  Measured conc: 0.27 µM
[1]; [14]
  Bias: 9.32%
  Measured conc: 2.73 µM
[1]; [15]
  Bias: 0.75%
  Measured conc: 25.19 µM
[1]; [16]
  Bias: -4.84%
  Measured conc: 0.24 µM
[1]; [17]
  Bias: -5.62%
  Measured conc: 2.36 µM
[1]; [18]
  Bias: 5.39%
  Measured conc: 26.35 µM
In vivo; in vivo, iv, 1.86 mg/kg
  AUC: 0.042 µM·h
  half-life: 12.3 min
In vivo; in vivo, iv, 18.6 mg/kg
  AUC: 0.6 µM·h
  half-life: 28.5 min
In vivo; in vivo, iv, 78.3 mg/kg
  AUC: 11.6 µM·h
  half-life: 31.5 min
[2]; 100 µM
  Percent Protein Bound (Mean ± SD): 65.81 ± 0.02%
[3]
  IC50: 58.3 µM and 58 µM

## O=C(O)CCc1nc2cc3c(cc2[n+]([O-])n1)CCC3 [M18]
In vivo; in vivo, iv, 1.86 mg/kg
  AUC: 0.77 µM·h
In vivo; in vivo, iv, 18.6 mg/kg
  AUC: 10.1 µM·h
  half-life: 101 min
In vivo; in vivo, iv, 78.3 mg/kg
  AUC: 60.9 µM·h
  half-life: 75 min
[2]; 10 µM
  Percent Protein Bound (Mean ± SD): 91.77 ± 0.01%
[2]; 100 µM
  Percent Protein Bound (Mean ± SD): 90.32 ± 0.01%
[3]; mouse brain acetylcholinesterase, 300 μM
  Inhibition at 300 μM: no inhibition
[3]
  IC50: > 300 µM

## [O-][n+]1nc(CCCN2CCOCC2)[n+]([O-])c2cc3c(cc21)CCC3 [SN30000, 3-(3-Morpholinopropyl)-7,8-dihydro-6H-indeno[5,6-e][1,2,4]triazine 1,4-dioxide]
[1]; [4]
  Bias: 3.36%
  Measured conc: 0.52 µM
[1]; [5]
  Bias: 2.86%
  Measured conc: 5.14 µM
[1]; [6]
  Bias: 6.75%
  Measured conc: 53.37 µM
[1]; [7]
  Bias: 1.98%
  Measured conc: 0.52 µM
[1]; [8]
  Bias: 4.40%
  Measured conc: 4.77 µM
[1]; [9]
  Bias: 4.71%
  Measured conc: 47.06 µM
[1]; [10]
  Bias: 2.46%
  Measured conc: 0.51 µM
[1]; [11]
  Bias: 4.72%
  Measured conc: 5.24 µM
[1]; [12]
  Bias: 6.87%
  Measured conc: 53.43 µM
[1]; [13]
  Bias: -3.26%
  Measured conc: 0.48 µM
[1]; [14]
  Bias: 2.72%
  Measured conc: 5.14 µM
[1]; [15]
  Bias: 1.20%
  Measured conc: 50.60 µM
[1]; [16]
  Bias: -10.74%
  Measured conc: 0.45 µM
[1]; [17]
  Bias: -8.29%
  Measured conc: 4.59 µM
[1]; [18]
  Bias: 4.78%
  Measured conc: 52.39 µM
In vivo; in vivo, 78 mg/kg
  clearance: 84 mL/min/kg
In vivo; in vivo, iv
  clearance: 83.3 to 167 mL/min/kg
In vivo; in vivo, iv, 1.86 mg/kg
  AUC: 0.53 µM·h
  Cmax: 1.86 ± 0.13 µM
  Vd: 1.52 L/kg
  clearance: 177 mL/min/kg
  half-life: 8.03 min
In vivo; in vivo, iv, 18.6 mg/kg
  AUC: 8.1 µM·h
  Cmax: 25.2 ± 0.27 µM
  Vd: 1.29 L/kg
  clearance: 116 mL/min/kg
  half-life: 27.6 min
In vivo; in vivo, iv, 78.3 mg/kg
  AUC: 47 µM·h
  Cmax: 81.9 ± 2.71 µM
  Vd: 2.24 L/kg
  clearance: 84 mL/min/kg
  half-life: 23.9 min
[2]; 10 µM
  Percent Protein Bound (Mean ± SD): 21.93 ± 0.17%
[2]; 100 µM
  Percent Protein Bound (Mean ± SD): 26.68 ± 0.04%
[3]
  IC50: 131 µM
